ChEMBL document CHEMBL1201862, “PubChem BioAssay data set” (2004)
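Step 1: Grow cells in 96-well plates. Step 2: Expose to compound for 48 hours at 5 concentrations. Step 3: Interpolate endpoints linearly; if unreached, use highest concentration. GI50 = concentration required for 50% inhibition of growth.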 Calls of active or inactive are those of the source. No stated cut-off is given here; in the data, active = GI50 up to about 1.1 µM and inactive = higher.

What was measured:
Assay in all cases: DTP human tumour cell line panel, 48 h
Hs-578T = test system: Hs-578T
DU-145 = test system: DU-145
HCT-116 = test system: HCT-116
SF-295 = test system: SF-295
HCC 2998 = test system: HCC 2998
NCI-H226 = test system: NCI-H226
U-251 = test system: U-251
CAKI-1 = test system: CAKI-1
EKVX = test system: EKVX
SK-MEL-2 = test system: SK-MEL-2
SR = test system: SR
SNB-75 = test system: SNB-75
MDA-MB-435 = test system: MDA-MB-435
UO-31 = test system: UO-31
RXF 393 = test system: RXF 393
OVCAR-5 = test system: OVCAR-5
OVCAR-3 = test system: OVCAR-3
SN12C = test system: SN12C
NCI-H522 = test system: NCI-H522
Malme-3M = test system: Malme-3M

Measured: GI50

Cc1cccc(NC(=S)Nc2ccc([N+](=O)[O-])cc2)n1
inactive: Hs-578T > 100 µM | DU-145 > 100 µM | HCT-116 > 100 µM | SF-295 > 100 µM | HCC 2998 > 100 µM | NCI-H226 > 100 µM | U-251 > 100 µM | CAKI-1 > 100 µM | EKVX > 100 µM | SK-MEL-2 > 100 µM | SR > 100 µM | SNB-75 > 100 µM | MDA-MB-435 > 100 µM | UO-31 > 100 µM | RXF 393 > 100 µM

NC(=S)N/N=C(/C(=O)Nc1nc2ccc([N+](=O)[O-])cc2s1)C1C(=O)NC(=S)NC1=O
inactive: Hs-578T 27.7 µM | DU-145 > 100 µM | HCT-116 > 100 µM | OVCAR-5 55.3 µM | SF-295 42.2 µM | HCC 2998 56 µM | NCI-H226 33.2 µM | U-251 > 100 µM | CAKI-1 45.8 µM | SK-MEL-2 > 100 µM | OVCAR-3 > 100 µM | SN12C > 100 µM | SR > 100 µM | MDA-MB-435 > 100 µM | UO-31 63.8 µM | RXF 393 48.6 µM

C=CC1(C)CCC2C(=CCC3C2(C)CC(O)C(O)C3(C)COC2OC(CO)C(O)C(O)C2O)C1 (stereo not drawn)
inactive: NCI-H522 > 100 µM | Hs-578T > 100 µM | DU-145 > 100 µM | HCT-116 > 100 µM | OVCAR-5 > 100 µM | SF-295 > 100 µM | HCC 2998 > 100 µM | NCI-H226 > 100 µM | U-251 > 100 µM | CAKI-1 > 100 µM | EKVX > 100 µM | Malme-3M > 100 µM | SK-MEL-2 > 100 µM | SN12C > 100 µM | SR 41.4 µM | SNB-75 > 100 µM | MDA-MB-435 > 100 µM | UO-31 > 100 µM

COc1cc(/C=N/c2ccc(S(N)(=O)=O)cc2)cc(OC)c1
inactive: Hs-578T > 50 µM | DU-145 > 50 µM | HCT-116 19.8 µM | OVCAR-5 > 50 µM | SF-295 > 50 µM | HCC 2998 > 50 µM | NCI-H226 > 50 µM | U-251 > 50 µM | CAKI-1 > 50 µM | EKVX > 50 µM | Malme-3M > 50 µM | SK-MEL-2 > 50 µM | OVCAR-3 > 50 µM | SN12C > 50 µM | SR 16.4 µM | SNB-75 25.6 µM | MDA-MB-435 14 µM | UO-31 > 50 µM | RXF 393 > 50 µM

O=C(NC(=S)Nc1ccc(Br)cc1)c1ccc2c(c1)Sc1ccccc1S2
inactive: NCI-H522 23.1 µM | Hs-578T 26.5 µM | DU-145 17.3 µM | HCT-116 23.2 µM | OVCAR-5 20.6 µM | SF-295 20.4 µM | NCI-H226 23.4 µM | U-251 19 µM | CAKI-1 20.1 µM | Malme-3M 24.4 µM | SK-MEL-2 24.5 µM | OVCAR-3 20.3 µM | SN12C 18.8 µM | SR 17.3 µM | SNB-75 15 µM | MDA-MB-435 94.4 µM | UO-31 12.9 µM

NC(=O)NC(=O)c1cccc(CNc2ccc(C(=O)N[C@@H](CCC(=O)O)C(=O)O)cc2)n1
inactive: NCI-H522 > 100 µM | Hs-578T > 100 µM | DU-145 > 100 µM | HCT-116 > 100 µM | OVCAR-5 > 100 µM | SF-295 > 100 µM | HCC 2998 > 100 µM | NCI-H226 > 100 µM | U-251 > 100 µM | CAKI-1 > 100 µM | EKVX > 100 µM | SK-MEL-2 > 100 µM | OVCAR-3 > 100 µM | SN12C > 100 µM | SR > 100 µM | MDA-MB-435 > 100 µM | UO-31 > 100 µM

COc1ccc2c(c1)CCC1=C/C(=N\NC(N)=O)CCC12C (stereo not drawn)
inactive: NCI-H522 > 10 µM | Hs-578T 7.1 µM | DU-145 > 10 µM | HCT-116 > 10 µM | SF-295 > 10 µM | HCC 2998 > 10 µM | U-251 > 10 µM | CAKI-1 > 10 µM | Malme-3M > 10 µM | OVCAR-3 > 10 µM | SN12C > 10 µM | SR > 10 µM | SNB-75 > 10 µM | MDA-MB-435 5.24 µM

CC(SC(=S)N(C)C)C(=O)Nc1nnc(-c2ccc(Cl)cc2)o1 (stereo not drawn)
inactive: Hs-578T > 100 µM | DU-145 59.8 µM | HCT-116 28.8 µM | OVCAR-5 56.4 µM | HCC 2998 > 100 µM | NCI-H226 40.6 µM | U-251 31 µM | Malme-3M 90.2 µM | SK-MEL-2 30.8 µM | OVCAR-3 19.6 µM | SN12C 33.7 µM | SR 4.33 µM | SNB-75 41.5 µM | MDA-MB-435 35.2 µM | UO-31 20 µM | RXF 393 80.7 µM

Cc1ccc(S(=O)(=O)N(CC(O)COc2ccccc2)c2ccc(F)cc2F)cc1 (stereo not drawn)
inactive: Hs-578T 17.3 µM | DU-145 16.6 µM | OVCAR-5 18.1 µM | SF-295 17.2 µM | HCC 2998 14.1 µM | NCI-H226 18.8 µM | U-251 14.4 µM | CAKI-1 12.2 µM | EKVX 14.7 µM | Malme-3M 16 µM | SK-MEL-2 15.5 µM | OVCAR-3 15.3 µM | SN12C 15.3 µM | SR 22.5 µM | SNB-75 14.8 µM | MDA-MB-435 16.1 µM | UO-31 13.9 µM | RXF 393 11.9 µM

CC(C)NC(=O)OCCN=C1c2ccccc2CCc2ccccc21
inactive: Hs-578T 24 µM | DU-145 25.5 µM | HCT-116 21.9 µM | OVCAR-5 29.4 µM | SF-295 14.7 µM | HCC 2998 18.4 µM | NCI-H226 25.6 µM | U-251 23.8 µM | CAKI-1 24.7 µM | EKVX 23.8 µM | Malme-3M 15.5 µM | SK-MEL-2 16.4 µM | OVCAR-3 25 µM | SN12C 18.8 µM | SR 18.1 µM | SNB-75 24.3 µM | MDA-MB-435 30.6 µM | UO-31 23.1 µM | RXF 393 39.7 µM

O=C1Nc2ccccc2/C1=N/N=C1NCCCCN1
inactive: NCI-H522 > 100 µM | Hs-578T > 100 µM | DU-145 > 100 µM | HCT-116 > 100 µM | OVCAR-5 > 100 µM | SF-295 > 100 µM | HCC 2998 > 100 µM | NCI-H226 > 100 µM | U-251 > 100 µM | CAKI-1 > 100 µM | EKVX > 100 µM | Malme-3M > 100 µM | SK-MEL-2 > 100 µM | OVCAR-3 > 100 µM | SN12C > 100 µM | SR > 100 µM | SNB-75 > 100 µM | MDA-MB-435 > 100 µM | UO-31 > 100 µM
